From the supplement of paper PMC10627819

Columns and labels:
B. subtilis 168 [1] = experiment: fitness (endpoint OD595 vs no drug) (fraction); higher = more growth
How it was run: (§1)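 At 37 °C, bacteria in TSB, LB Lennox or CY were grown in 384-well plates from a starting OD595 of 0.01. OD595 was measured every 30 min for 14 h, with the first reading used as background. Fitness is the optical density at the switch to stationary phase as a fraction of the robust mean of no-drug control wells, capped at 1.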

S. aureus DSM 20231 [2] = experiment: as above
How it was run: as §1

S. aureus Newman [3] = experiment: as above
How it was run: as §1

S. pneumoniae D39V [4] = experiment: as above
How it was run: as §1

B. subtilis 168 [5] = experiment: Bliss interaction score (quartile over a dose matrix) (fitness difference); higher = more antagonism (negative = synergy)
How it was run: (§2)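 Quartiles summarise the Bliss score over technical, biological and donor/recipient replicates, where the score is observed minus expected fitness under a product model. Expected fitness uses single-drug values inferred from combination data. Fitness is OD595 at entry into stationary phase over the plate's robust no-drug mean, capped at 1.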

S. aureus DSM 20231 [6] = experiment: as above
How it was run: as §2

S. aureus Newman [7] = experiment: as above
How it was run: as §2

S. pneumoniae D39V [8] = experiment: as above
How it was run: as §2
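For Bliss interaction score (quartile over a dose matrix) in this document: first quartile when negative (synergy) and third quartile when positive (antagonism).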

CCC[C@@H]1C[C@@H](C(=O)N[C@@H]([C@H]2O[C@H](SC)[C@H](O)[C@@H](O)[C@H]2O)[C@H](C)Cl)N(C)C1 [Clindamycin] + CN[C@@H]1[C@H](O)[C@H](NC)[C@H]2O[C@@]3(O)C(=O)C[C@@H](C)O[C@H]3O[C@@H]2[C@H]1O [Spectinomycin]
one replicate
Conditions | fitness
B. subtilis 168 [1], first compound 0.0039 µg/mL, partner 2 µg/mL | 0.988
B. subtilis 168 [1], first compound 0.0039 µg/mL, partner 4 µg/mL | 0.98
B. subtilis 168 [1], first compound 0.0039 µg/mL, partner 8 µg/mL | ≥ 1
B. subtilis 168 [1], first compound 0.0078 µg/mL, partner 2 µg/mL | 0.897
B. subtilis 168 [1], first compound 0.0078 µg/mL, partner 4 µg/mL | 0.898
B. subtilis 168 [1], first compound 0.0078 µg/mL, partner 8 µg/mL | 0.904
B. subtilis 168 [1], first compound 0.0156 µg/mL, partner 2 µg/mL | 0.904
B. subtilis 168 [1], first compound 0.0156 µg/mL, partner 4 µg/mL | 0.903
B. subtilis 168 [1], first compound 0.0156 µg/mL, partner 8 µg/mL | 0.851
S. aureus DSM 20231 [2], first compound 0.0312 µg/mL, partner 32 µg/mL | 0.105
S. aureus DSM 20231 [2], first compound 0.0312 µg/mL, partner 64 µg/mL | 0.0235
S. aureus DSM 20231 [2], first compound 0.0625 µg/mL, partner 32 µg/mL | 0.0623
S. aureus DSM 20231 [2], first compound 0.0625 µg/mL, partner 64 µg/mL | 0.0291
S. aureus DSM 20231 [2], first compound 0.125 µg/mL, partner 32 µg/mL | 0.0592
S. aureus DSM 20231 [2], first compound 0.125 µg/mL, partner 64 µg/mL | 0.0326
S. aureus Newman [3], first compound 0.0312 µg/mL, partner 32 µg/mL | 0.0927
S. aureus Newman [3], first compound 0.0312 µg/mL, partner 64 µg/mL | 0.0581
S. aureus Newman [3], first compound 0.0625 µg/mL, partner 32 µg/mL | 0.0269
S. aureus Newman [3], first compound 0.0625 µg/mL, partner 64 µg/mL | 0.0621
S. aureus Newman [3], first compound 0.125 µg/mL, partner 32 µg/mL | 0.0191
S. aureus Newman [3], first compound 0.125 µg/mL, partner 64 µg/mL | 0.0457
S. pneumoniae D39V [4], first compound 0.015 µg/mL, partner 4 µg/mL | 0.935
S. pneumoniae D39V [4], first compound 0.015 µg/mL, partner 8 µg/mL | 0.899
S. pneumoniae D39V [4], first compound 0.03 µg/mL, partner 4 µg/mL | 0.765
S. pneumoniae D39V [4], first compound 0.03 µg/mL, partner 8 µg/mL | 0.754
S. pneumoniae D39V [4], first compound 0.06 µg/mL, partner 4 µg/mL | 0.657
S. pneumoniae D39V [4], first compound 0.06 µg/mL, partner 8 µg/mL | 0.671

fitness
Conditions | partner 2 µg/mL | partner 4 µg/mL | partner 8 µg/mL | partner 16 µg/mL
B. subtilis 168 [1], first compound 0.0625 µg/mL | 0.508 | 0.46 | 0.383 | –
B. subtilis 168 [1], first compound 0.125 µg/mL | 0.37 | 0.365 | 0.251 | –
B. subtilis 168 [1], first compound 0.25 µg/mL | 0.363 | 0.327 | 0.155 | –
S. aureus DSM 20231 [2], first compound 0.125 µg/mL | – | 0.0615 | 0.0809 | 0.0399
S. aureus Newman [3], first compound 0.0312 µg/mL | – | 0.564 | 0.579 | 0.466
S. aureus Newman [3], first compound 0.125 µg/mL | – | 0.0748 | 0.109 | 0.0841
S. pneumoniae D39V [4], first compound 0.0125 µg/mL | – | 0.672 | 0.656 | 0.601
S. pneumoniae D39V [4], first compound 0.025 µg/mL | – | 0.457 | 0.409 | 0.396
S. pneumoniae D39V [4], first compound 0.05 µg/mL | – | 0.248 | 0.231 | 0.19

Conditions | Bliss interaction score
B. subtilis 168 [5] | -0.0853
S. aureus DSM 20231 [6] | -0.0511
S. aureus Newman [7] | -0.147
S. pneumoniae D39V [8] | 0.0544

COc1c(N2C[C@@H]3CCCN[C@@H]3C2)c(F)cc2c(=O)c(C(=O)O)cn(C3CC3)c12 [Moxifloxacin] + COc1ccc(C[C@H](N)C(=O)N[C@H]2[C@@H](O)[C@H](n3cnc4c(N(C)C)ncnc43)O[C@@H]2CO)cc1 [Puromycin]
fitness
Conditions | partner 0.39 µg/mL | partner 0.78 µg/mL | partner 1 µg/mL | partner 1.56 µg/mL | partner 2 µg/mL | partner 4 µg/mL
B. subtilis 168 [1], first compound 0.0312 µg/mL | 0.0423 | 0.0567 | – | 0.053 | – | –
B. subtilis 168 [1], first compound 0.0625 µg/mL | 0.0666 | 0.0602 | – | 0.0585 | – | –
B. subtilis 168 [1], first compound 0.125 µg/mL | 0.0451 | 0.045 | – | 0.0653 | – | –
B. subtilis 168 [1], first compound 2 µg/mL | 0.0227 | 0.028 | – | 0.0306 | – | –
B. subtilis 168 [1], first compound 4 µg/mL | 0.021 | 0.0248 | – | 0.0303 | – | –
B. subtilis 168 [1], first compound 8 µg/mL | 0.009 | 0.0168 | – | 0.0189 | – | –
S. aureus DSM 20231 [2], first compound 0.0075 µg/mL | 0.885 | 0.928 | – | 0.861 | – | –
S. aureus DSM 20231 [2], first compound 0.015 µg/mL | 0.789 | 0.846 | – | 0.802 | – | –
S. aureus DSM 20231 [2], first compound 0.03 µg/mL | 0.681 | 0.695 | – | 0.668 | – | –
S. aureus Newman [3], first compound 0.0075 µg/mL | 0.797 | 0.757 | – | 0.817 | – | –
S. aureus Newman [3], first compound 0.015 µg/mL | 0.673 | 0.657 | – | 0.658 | – | –
S. aureus Newman [3], first compound 0.03 µg/mL | 0.119 | 0.161 | – | 0.282 | – | –
S. pneumoniae D39V [4], first compound 0.005 µg/mL | – | – | ≥ 1 | – | ≥ 1 | 0.885
S. pneumoniae D39V [4], first compound 0.01 µg/mL | – | – | ≥ 1 | – | 0.982 | 0.88
S. pneumoniae D39V [4], first compound 0.02 µg/mL | – | – | 1 | – | 0.985 | 0.88

one replicate
Conditions | fitness
S. aureus DSM 20231 [2], first compound 0.0075 µg/mL, partner 3.12 µg/mL | 0.779
S. aureus DSM 20231 [2], first compound 0.0075 µg/mL, partner 6.24 µg/mL | 0.642
S. aureus DSM 20231 [2], first compound 0.015 µg/mL, partner 3.12 µg/mL | 0.787
S. aureus DSM 20231 [2], first compound 0.015 µg/mL, partner 6.24 µg/mL | 0.509
S. aureus DSM 20231 [2], first compound 0.03 µg/mL, partner 3.12 µg/mL | 0.754
S. aureus DSM 20231 [2], first compound 0.03 µg/mL, partner 6.24 µg/mL | 0.547
S. aureus DSM 20231 [2], first compound 0.06 µg/mL, partner 0.39 µg/mL | 0.676
S. aureus DSM 20231 [2], first compound 0.06 µg/mL, partner 0.78 µg/mL | 0.7
S. aureus DSM 20231 [2], first compound 0.06 µg/mL, partner 1.56 µg/mL | 0.687
S. aureus DSM 20231 [2], first compound 0.12 µg/mL, partner 0.39 µg/mL | 0.48
S. aureus DSM 20231 [2], first compound 0.12 µg/mL, partner 0.78 µg/mL | 0.482
S. aureus DSM 20231 [2], first compound 0.12 µg/mL, partner 1.56 µg/mL | 0.558
S. pneumoniae D39V [4], first compound 0.0037 µg/mL, partner 1 µg/mL | 0.502
S. pneumoniae D39V [4], first compound 0.0037 µg/mL, partner 2 µg/mL | 0.431
S. pneumoniae D39V [4], first compound 0.0037 µg/mL, partner 4 µg/mL | 0.342
S. pneumoniae D39V [4], first compound 0.0075 µg/mL, partner 1 µg/mL | 0.846
S. pneumoniae D39V [4], first compound 0.0075 µg/mL, partner 2 µg/mL | 0.82
S. pneumoniae D39V [4], first compound 0.0075 µg/mL, partner 4 µg/mL | 0.77
S. pneumoniae D39V [4], first compound 0.015 µg/mL, partner 1 µg/mL | 0.935
S. pneumoniae D39V [4], first compound 0.015 µg/mL, partner 2 µg/mL | 0.798
S. pneumoniae D39V [4], first compound 0.015 µg/mL, partner 4 µg/mL | 0.763

Conditions | Bliss interaction score
B. subtilis 168 [5] | -0.0157
S. aureus DSM 20231 [6] | -0.0292
S. aureus Newman [7] | 0.0443
S. pneumoniae D39V [8] | 0.101

CCC[C@@H]1C[C@@H](C(=O)N[C@@H]([C@H]2O[C@H](SC)[C@H](O)[C@@H](O)[C@H]2O)[C@H](C)Cl)N(C)C1 [Clindamycin] + CN(N=O)C(=O)N[C@@H](C=O)[C@@H](O)[C@H](O)[C@H](O)CO [Streptozotocin]
fitness, one replicate
Conditions | first compound 0.0039 µg/mL | first compound 0.0078 µg/mL | first compound 0.015 µg/mL | first compound 0.0156 µg/mL | first compound 0.03 µg/mL | first compound 0.06 µg/mL | first compound 0.0625 µg/mL | first compound 0.125 µg/mL | first compound 0.25 µg/mL
B. subtilis 168 [1], partner 0.15 µg/mL | 1 | 0.954 | – | 0.951 | – | – | 0.545 | 0.41 | 0.378
B. subtilis 168 [1], partner 0.3 µg/mL | ≥ 1 | 0.857 | – | 0.894 | – | – | 0.504 | 0.383 | 0.366
B. subtilis 168 [1], partner 0.6 µg/mL | ≥ 1 | 0.915 | – | 0.89 | – | – | 0.521 | 0.374 | 0.365
S. pneumoniae D39V [4], partner 1.2 µg/mL | – | – | 0.817 | – | 0.702 | 0.595 | – | – | –
S. pneumoniae D39V [4], partner 2.4 µg/mL | – | – | 0.908 | – | 0.79 | 0.666 | – | – | –
S. pneumoniae D39V [4], partner 4.8 µg/mL | – | – | 0.909 | – | 0.71 | 0.554 | – | – | –

fitness
Conditions | partner 0.15 µg/mL | partner 0.3 µg/mL | partner 0.6 µg/mL | partner 1.2 µg/mL | partner 2.4 µg/mL | partner 4.8 µg/mL
S. aureus DSM 20231 [2], first compound 0.0625 µg/mL | 0.0812 | 0.0698 | 0.0805 | – | – | –
S. aureus DSM 20231 [2], first compound 0.125 µg/mL | 0.0369 | 0.0299 | 0.0239 | – | – | –
S. aureus Newman [3], first compound 0.0312 µg/mL | 0.608 | 0.612 | 0.475 | – | – | –
S. aureus Newman [3], first compound 0.0625 µg/mL | 0.329 | 0.336 | 0.243 | – | – | –
S. aureus Newman [3], first compound 0.125 µg/mL | 0.0373 | 0.0413 | 0.0299 | – | – | –
S. pneumoniae D39V [4], first compound 0.0125 µg/mL | – | – | – | 0.661 | 0.682 | 0.688
S. pneumoniae D39V [4], first compound 0.025 µg/mL | – | – | – | 0.413 | 0.439 | 0.445
S. pneumoniae D39V [4], first compound 0.05 µg/mL | – | – | – | 0.175 | 0.207 | 0.196

Conditions | Bliss interaction score
B. subtilis 168 [5] | 0.0373
S. aureus DSM 20231 [6] | -0.0342
S. aureus Newman [7] | 0.0448
S. pneumoniae D39V [8] | -0.0563
